Reference: the supplement of paper PMC13380429
± gives the standard deviation of the averaged measurements.

Key:
Settings in all cases: 72 h
Caco-2 [1] = assay: relative viability EC50 (midpoint between 100% and the lowest measured viability); higher = less toxic
U2OS [2] = assay: as above
Vero E6 [3] = assay: as above
HepG2 [4] = assay: as above
Calu-3 [5] = assay: as above
Caco-2 [6] = assay: drug sensitivity score (DSS) for viability; higher = more toxic; extreme values may be limits of the assay
U2OS [7] = assay: as above
Vero E6 [8] = assay: as above
HepG2 [9] = assay: as above
Calu-3 [10] = assay: as above
Caco-2 [11] = assay: cell viability relative to DMSO; higher = less toxic
U2OS [12] = assay: as above
Vero E6 [13] = assay: as above
HepG2 [14] = assay: as above
Calu-3 [15] = assay: as above

Compound	relative viability EC50 (Caco-2 [1]) [µM]	relative viability EC50 (U2OS [2]) [µM]	relative viability EC50 (Vero E6 [3]) [µM]	relative viability EC50 (HepG2 [4]) [µM]	relative viability EC50 (Calu-3 [5]) [µM]	drug sensitivity score (Caco-2 [6])	drug sensitivity score (U2OS [7])	drug sensitivity score (Vero E6 [8])	drug sensitivity score (HepG2 [9])	drug sensitivity score (Calu-3 [10])	cell viability (Caco-2 [11]; 1 nM) [%]	cell viability (Caco-2 [11]; 10 nM) [%]	cell viability (Caco-2 [11]; 100 nM) [%]	cell viability (Caco-2 [11]; 1000 nM) [%]	cell viability (Caco-2 [11]; 10000 nM) [%]	cell viability (U2OS [12]; 1 nM) [%]	cell viability (U2OS [12]; 10 nM) [%]	cell viability (U2OS [12]; 100 nM) [%]	cell viability (U2OS [12]; 1000 nM) [%]	cell viability (U2OS [12]; 10000 nM) [%]	cell viability (Vero E6 [13]; 1 nM) [%]	cell viability (Vero E6 [13]; 10 nM) [%]	cell viability (Vero E6 [13]; 100 nM) [%]	cell viability (Vero E6 [13]; 1000 nM) [%]	cell viability (Vero E6 [13]; 10000 nM) [%]	cell viability (HepG2 [14]; 1 nM) [%]	cell viability (HepG2 [14]; 10 nM) [%]	cell viability (HepG2 [14]; 100 nM) [%]	cell viability (HepG2 [14]; 1000 nM) [%]	cell viability (HepG2 [14]; 10000 nM) [%]	cell viability (Calu-3 [15]; 1 nM) [%]	cell viability (Calu-3 [15]; 10 nM) [%]	cell viability (Calu-3 [15]; 100 nM) [%]	cell viability (Calu-3 [15]; 1000 nM) [%]	cell viability (Calu-3 [15]; 10000 nM) [%]
Cc1cc(C(=CNc2ccc(Cl)cc2)C(=O)Nc2ccc(Cl)cc2)on1 [CCMI]	> 10	> 10	> 10	> 10	> 10	0	0	0	0	0	98.4	93	104	88	100	103	93.3	97.8	102	99.4	98.7	101	98.7	96.6	98.1	95.6	96.3	96.9	107	95.7	104	100	105	98.9	105
COc1ccc(C2(O)CCC(N3CC[C@@H](NC(=O)CNC(=O)c4cccc(C(F)(F)F)c4)C3)CC2)cn1 (stereo not given in full)	> 10	> 10	> 10	> 10	> 10	0	0	0	0	0	100 ± 2.3	95.3 ± 5.2	95.3 ± 2.9	100 ± 2.4	94.8 ± 5.4	99.7 ± 2	98.5 ± 1.3	98.6 ± 2.7	99.4 ± 0.14	100 ± 4.2	97.7 ± 1.4	97.8 ± 5.8	97.7 ± 1.3	95.8 ± 1.9	97.6 ± 3.8	94.8 ± 12	97.7 ± 1.6	101 ± 8.1	94.8 ± 8.5	102 ± 8.6	102 ± 13	92.8 ± 6.5	96.3 ± 4.9	97.7 ± 4.2	95.2 ± 9.2
CN1CCN(c2ncc(-c3cc(Cl)cc(Cl)c3Cl)c(N)n2)CC1 [sipatrigine]	> 10	> 10	> 10	> 10	> 10	0	0	0	0.2	0	85.5	91.1	92.3	91.8	85.3	104	102	104	103	92.9	110	107	100	101	94.5	100	103	110	98.4	86.4	92.1	105	108	111	92.3
CNC(=O)[C@@H](Cc1ccccc1)N(C)C(=O)[C@@H](Cc1ccc2ccccc2c1)N(C)C(=O)/C=C/CC(C)(C)N [tabimorelin]	> 10	> 10	> 10	> 10	> 10	0	0	0	0.6	0	99.8	104	103	95.4	92.3	99.9	101	96.8	103	98.3	95.8	102	101	102	99.1	105	96.5	106	87.3	96.5	96.4	100	100	104	88.2
COc1cc(C(=O)NCc2ccc(OCCN(C)C)cc2)cc(OC)c1OC [trimethobenzamide]	> 10	> 10	> 10	> 10	> 10	0	0	0	0	0	95.9	94.3	99.2	87.8	99.7	97.6	93.8	102	97.4	100	96.1	99.7	93.2	99.1	99.9	98.2	106	99.5	101	107	103	84.6	98.2	93.6	101
CC(Cc1cccc(C(F)(F)F)c1)NCCOC(=O)c1ccccc1 (stereo not given) [benfluorex]	> 10	> 10	> 10	> 10	> 10	0	0	0	0	0	103	95.9	103	107	97.6	98.8	102	105	96.8	100	101	107	94.2	100	96.3	86	96.6	97.8	99.4	88.4	97.8	94.5	100	96.4	104
Oc1nc(O)c2cn[nH]c2n1 [oxypurinol]	> 10	> 10	> 10	> 10	> 10	0	0	0	0	0	107	100	98	97.7	97.1	101	102	93.6	99.5	99.8	96.1	103	98.5	101	100	108	86.2	104	101	96	95.6	108	97.2	107	94.6
CCOc1cc(C=O)ccc1O [ethyl-vanillin]	> 10	> 10	> 10	> 10	> 10	0	0	0	0	0	99.3	92.5	98.5	78.4	101	97.4	102	96.2	101	99.9	106	92.8	107	95.1	91.6	117	99.5	96.2	103	97.1	98.6	108	102	97.5	99.3
CCCCN(CCCC)C(=O)CN1C[C@H](c2ccc3c(c2)OCO3)[C@@H](C(=O)O)[C@@H]1c1ccc(OC)cc1 [atrasentan]	> 10	> 10	> 10	> 10	> 10	0	0	0	0	0	101	99.8	98.3	88.3	99.3	94.4	94.4	102	94.5	106	104	105	98.8	98.8	104	106	104	92.6	104	97.6	98.7	94.6	114	104	109
COCCN1CCC(C(=O)NO)(S(=O)(=O)c2ccc(Oc3ccc(OC(F)(F)F)cc3)cc2)CC1 [SD-2590]	> 10	> 10	> 10	> 10	> 10	0	0	0	0	0.1	97.8	103	95.9	98.8	107	98.2	103	92.2	100	98.8	97.6	94	98.7	92.2	103	95.9	93.8	93.9	89	91.6	93.9	96.8	96.9	98.8	88.1
CC(=O)OCC1=C(C(=O)O)N2C(=O)[C@@H](NC(=O)CS/C(=N/C(C)C)NC(C)C)[C@H]2SC1 [cefathiamidine]	> 10	> 10	> 10	> 10	> 10	0	0	0	0	0	97.9	96.5	113	107	96.6	94.3	94.3	97.9	98.8	102	99.7	101	95.1	102	109	94.6	89.3	96.8	98.1	105	97.3	107	107	108	102
Cn1ccnc1S [methimazole]	> 10	> 10	> 10	> 10	> 10	0	0	0	0	0	99.3	84.3	99.7	86.5	101	98	101	98.7	99.8	98.5	104	99.3	102	106	101	109	95.4	109	81.7	101	93.9	97.3	100	100	94.5
O=c1c2ccccc2nc2n1CCc1c-2[nH]c2ccccc12 [rutaecarpine]	> 10	> 10	> 10	> 10	> 10	0	0	0	1.7	0	102	100	92.9	97.1	91.6	96.5	101	97	106	99.8	103	104	98.3	100	98.8	104	105	98.7	93.7	76.4	87	102	98.8	111	87.9
Cc1ncc([N+](=O)[O-])n1CC(O)CCl (stereo not given) [ornidazole]	> 10	> 10	> 10	> 10	> 10	0	0	0	0	0	103	101	99.1	102	98.4	91.3	97.1	91.8	95.8	102	101	96.6	97.4	96	104	101	98	91.6	107	99.7	99.9	95.1	93.8	96.1	108
CC(C)(C)c1ccc(S(=O)(=O)/C=C/C#N)cc1 [BAY-11-7085]	2.1	2.26	2.35	2	2.69	4.8	7.4	7.1	8	3.1	101	82.2	83.6	91.8	37.8	101	99	102	89.1	-0.4	92.7	95.9	91.8	90.3	-0.3	96.7	100	98.7	85.2	-0.4	105	103	96	97	49.8
